Data as given in the supplement of paper PMC8671470.

What was measured:
Settings in all cases: 72 h
[1] = test system: HL-60; assay: cell viability (% survival relative to DMSO control); higher = less cytotoxic
Outline: (§1)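 Area under the curve, where listed, was derived from four-parameter log-logistic fits with drc and PharmacoGx. These fits used CellTiter-Glo viability from HL-60 cells in RPMI 1640 with 10% FBS, normalised to DMSO wells and wells holding 10 μM proteasome inhibitor. The full library was rescreened on 384-well plates in duplicate at five tenfold concentrations, 1–10,000 nM, with DMSO or 100 nM of one of three metabolic inhibitors, for 72 h at 37 °C, 5% CO2.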

[2] = test system: THP-1; assay: cell viability (% survival relative to DMSO control, bortezomib = 0%); higher = less cytotoxic
Outline: (§2)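 Reported values are percent survival from duplicate wells, averaged. Fifteen myeloid leukaemia cell lines were treated in 384-well plates with compounds at 1, 10, 100, 1000 or 10000 nM for 72 h at 37 °C in 5% CO2. Signals from CellTiter-Glo luminescence were scaled with vehicle as 100% and a 10 µM positive control as 0%.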

[3] = test system: NOMO-1; assay: as above
Outline: as §2

[4] = test system: SHI-1; assay: as above
Outline: as §2

[5] = test system: K-562; assay: as above
Outline: as §2

[6] = test system: LAMA-84; assay: as above
Outline: as §2

[7] = test system: BV-173; assay: as above
Outline: as §2

[8] = test system: HEL; assay: as above
Outline: as §2

[9] = test system: HL-60; assay: as above
Outline: as §2

[10] = test system: ML-2; assay: as above
Outline: as §2

[11] = test system: KCL-22; assay: as above
Outline: as §2

[12] = test system: KG-1; assay: as above
Outline: as §2

[13] = test system: MOLM-13; assay: as above
Outline: as §2

[14] = test system: KU-812; assay: as above
Outline: as §2

[15] = test system: MV4-11; assay: as above
Outline: as §2

[16] = test system: Mono-Mac-6; assay: as above
Outline: as §2

[17] = test system: HL-60; assay: area under dose-response curve (viability, 1 nM-10 uM) (fraction (0-1)); higher = more sensitive
Outline: as §1

[18] = test system: MV4-11
Outline: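 In 384-well plates holding acoustically pre-printed compounds at five tenfold doses from 1 to 10,000 nM, in duplicate, fifteen myeloid leukaemia cell lines were grown in RPMI 1640 for 72 h at 37 °C with 5% CO2. Luminescent ATP viability was scaled between vehicle and a positive control at 10 µM. The IC50 was then taken from log-logistic dose–response fits with four parameters.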

OCCN(CCO)c1nc(N2CCCCC2)c2nc(N(CCO)CCO)nc(N3CCCCC3)c2n1 [Dipyridamole]
cell viability [%], [1]
Settings | 0.001 µM | 0.01 µM | 0.1 µM | 1 µM | 10 µM
co-treatment: AZD3965 100 nM | 95.7 | 98.9 | 100.7 | 102 | 106
co-treatment: DMSO vehicle | 101 | 97.54 | 107 | 100 | 106
co-treatment: GSK2194069 100 nM | 94.2 | 94.44 | 106 | 82 | 64
co-treatment: pictilisib 100 nM | 90.6 | 101 | 105.3 | 99.7 | 97.4

Settings | area under dose-response curve, co-treatment: AZD3965 100 nM | area under dose-response curve, co-treatment: DMSO vehicle | area under dose-response curve, co-treatment: pictilisib 100 nM | cell viability, 1 nM [%] | cell viability, 10 nM [%] | cell viability, 100 nM [%] | cell viability, 1000 nM [%] | cell viability, 10000 nM [%]
[2] | – | – | – | 96.6 | 100 | 107 | 90.8 | 81.5
[3] | – | – | – | 98 | 101 | 107 | 92.3 | 81.9
[4] | – | – | – | 104 | 113 | 110 | 92.2 | 80.9
[5] | – | – | – | 108 | 89.5 | 105 | 85.6 | 67
[6] | – | – | – | 97.9 | 99.6 | 108 | 90.3 | 83.7
[7] | – | – | – | 90.4 | 98.2 | 92.4 | 78.6 | 38.8
[8] | – | – | – | 87.6 | 101 | 102 | 105 | 77.7
[9] | – | – | – | 129 | 65.2 | 105 | 61.6 | 93.8
[10] | – | – | – | 93.4 | 104 | 123 | 103 | 66.4
[11] | – | – | – | 114 | 95.3 | 98.9 | 106 | 65
[12] | – | – | – | 94.7 | 112 | 101 | 104 | 90.2
[13] | – | – | – | 116 | 117 | 97.5 | 83.5 | 97.8
[14] | – | – | – | 87.9 | 98.7 | 90.7 | 86.5 | 69.4
[15] | – | – | – | 95.8 | 95 | 101 | 94.4 | 43.5
[16] | – | – | – | 98 | 103 | 98.5 | 97.1 | 77.4
[17] | < 0.0301 | < 0.0301 | < 0.0301 | – | – | – | – | –

Settings | IC50 (cell viability) [µM]
[18] | 8.82

NCc1ccc(-c2cccnc2)s1 [(5-Pyrid-3-YLTHIEN-2-YL)METHYLAMINE]
cell viability [%], [1]
Settings | 0.001 µM | 0.01 µM | 0.1 µM | 1 µM | 10 µM
co-treatment: AZD3965 100 nM | 103 | 78 | 114 | 97 | 101
co-treatment: DMSO vehicle | 103 | 101 | 109 | 92.7 | 98.43
co-treatment: GSK2194069 100 nM | 105 | 94.3 | 107.2 | 95.1 | 96.7
co-treatment: pictilisib 100 nM | 104 | 91.2 | 113 | 92.2 | 96.9

Settings | area under dose-response curve, co-treatment: AZD3965 100 nM | area under dose-response curve, co-treatment: DMSO vehicle | area under dose-response curve, co-treatment: GSK2194069 100 nM | area under dose-response curve, co-treatment: pictilisib 100 nM | cell viability, 1 nM [%] | cell viability, 10 nM [%] | cell viability, 100 nM [%] | cell viability, 1000 nM [%] | cell viability, 10000 nM [%]
[2] | – | – | – | – | 109 | 111 | 99.6 | 104 | 93
[3] | – | – | – | – | 109 | 105 | 97.5 | 109 | 87.9
[4] | – | – | – | – | 107 | 115 | 105 | 97 | 100
[5] | – | – | – | – | 92.7 | 122 | 96.1 | 90.4 | 94
[6] | – | – | – | – | 108 | 106 | 102 | 93 | 91.2
[7] | – | – | – | – | 113 | 102 | 98.7 | 104 | 87.2
[8] | – | – | – | – | 105 | 103 | 104 | 109 | 104
[9] | – | – | – | – | 99.3 | 107 | 103 | 115 | 121
[10] | – | – | – | – | 104 | 108 | 97.6 | 113 | 96.5
[11] | – | – | – | – | 122 | 114 | 91.6 | 84.7 | 88.8
[12] | – | – | – | – | 109 | 108 | 99.8 | 108 | 87.6
[13] | – | – | – | – | 100 | 102 | 93.7 | 97.8 | 91.8
[14] | – | – | – | – | 104 | 107 | 97.7 | 104 | 85.1
[15] | – | – | – | – | 91.6 | 123 | 104 | 110 | 89.6
[16] | – | – | – | – | 108 | 103 | 95.7 | 104 | 89
[17] | < 0.0301 | < 0.0301 | < 0.0301 | < 0.0301 | – | – | – | – | –

Settings | IC50 (cell viability) [µM]
[18] | > 10
